Measured values reported in patent US9808003B2, “Herbicidally active 2-(substituted-phenyl)-cyclopentane-1,3-dione compounds and derivatives thereof” (Syngenta Limited, priority 2013, dated 2017).

How the values were obtained:
Experiment in all cases: Test 1A glasshouse assay, post-emergence herbicidal activity
Type in all cases: in vivo
Avena fatua (AVEFA) = conditions: Avena fatua, 312 h, application rate 250 g/ha, 13 days after application, visual (100%=total damage; 0%=no damage), read-out: Post-emergence Herbicidal Activity (% Phytotoxicity) AVEFA
Summary of the method: (§1)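 Herbicidal effect is scored by eye as % phytotoxicity (0–100%) 13 days after treatment of 8-day-old glasshouse-grown plants. The spray solution contains the technical active ingredient in acetone/water with 0.5% Tween 20.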

[1] = system: Alopecurus myosuroides (ALOMY); conditions: application rate 250 g/ha, 13 days after application, visual (100%=total damage; 0%=no damage); for pest or weed control at 250 g/ha: Alopecurus myosuroides, 312 h, read-out: Post-emergence Herbicidal Activity (% Phytotoxicity) ALOMY
Summary of the method: as §1

[2] = system: Echinochloa crus-galli (ECHCG); conditions: Echinochloa crus-galli, 312 h, application rate 250 g/ha, 13 days after application, visual (100%=total damage; 0%=no damage), read-out: Post-emergence Herbicidal Activity (% Phytotoxicity) ECHCG
Summary of the method: as §1

Lolium perenne (LOLPE) = conditions: Lolium perenne, 312 h, application rate 250 g/ha, 13 days after application, visual (100%=total damage; 0%=no damage), read-out: Post-emergence Herbicidal Activity (% Phytotoxicity) LOLPE
Summary of the method: as §1

| SMILES | pest or weed control at 250 g/ha (Avena fatua (AVEFA)) [%] | pest or weed control at 250 g/ha [1] [%] | pest or weed control at 250 g/ha [2] [%] | pest or weed control at 250 g/ha (Lolium perenne (LOLPE)) [%] | Post-emergence Herbicidal Activity (% Phytotoxicity) ALOMY [1] [%] |
| --- | --- | --- | --- | --- | --- |
| Cc1cc(-n2cc(Cl)cn2)cc(C)c1C1C(=O)CC(CCNC(=O)c2cccc(Cl)n2)C1=O (stereo not drawn) [Compound A132] | 100 | 100 | 100 | 100 | – |
| Cc1cc(-n2cc(Cl)cn2)cc(C)c1C1C(=O)CC(CCNC(=O)c2ncccc2F)C1=O (stereo not drawn) [Compound A133] | 90 | 100 | 100 | 100 | – |
| Cc1cc(-n2cc(Cl)cn2)cc(C)c1C1C(=O)CC(CCNC(=O)c2cccc(Br)n2)C1=O (stereo not drawn) [Compound A134] | 100 | 100 | 100 | 100 | – |
| Cc1cc(-n2cc(Cl)cn2)cc(C)c1C1C(=O)CC(CCNC(=O)c2cccc(F)n2)C1=O (stereo not drawn) [Compound A135] | 90 | 100 | 100 | 100 | – |
| Cc1cc(-n2cc(Cl)cn2)cc(C)c1C1C(=O)CC(CCNC(=O)c2ccc(Br)cn2)C1=O (stereo not drawn) [Compound A136] | 90 | 100 | 100 | 100 | – |
| Cc1cc(-n2cc(Cl)cn2)cc(C)c1C1C(=O)CC(CCNC(=O)c2ccc(C#N)cn2)C1=O (stereo not drawn) [Compound A137] | 70 | 80 | 100 | 80 | – |
| Cc1cc(-n2cc(Cl)cn2)cc(C)c1C1C(=O)CC(CCNC(=O)c2cc(Cl)ccn2)C1=O (stereo not drawn) [Compound A138] | 90 | 100 | 100 | 100 | – |
| Cc1cc(-n2cc(Cl)cn2)cc(C)c1C1C(=O)CC(CCNC(=O)c2cccc(C(F)(F)F)n2)C1=O (stereo not drawn) [Compound A139] | 90 | 90 | 90 | 100 | – |
| Cc1cc(-n2cc(Cl)cn2)cc(C)c1C1C(=O)CC(CCNC(=O)c2nc(Cl)ccc2Br)C1=O (stereo not drawn) [Compound A140] | 100 | 90 | 100 | 100 | – |
| C#CCOc1cc(C)c(C2C(=O)CC(CCNC(=O)c3ccccn3)C2=O)c(C)c1 (stereo not drawn) [Compound A141A] | 80 | 80 | 80 | 70 | – |
| Cc1cc(-n2cc(Cl)cn2)cc(C)c1C1C(=O)CC(CCNC(=O)c2cc(Cl)cc(Cl)n2)C1=O (stereo not drawn) [Compound A141] | 10 | 60 | 100 | 70 | – |
| Cc1cc(-n2cc(C#N)cn2)cc(C)c1C1C(=O)CC(CCNC(=O)c2ccccn2)C1=O (stereo not drawn) [Compound A142, N-[2-[3-[4-(4-cyanopyrazol-1-yl)-2,6-dimethyl-phenyl]-2,4-dioxo-cyclopentyl]ethyl]pyridine-2-carboxamide] | 90 | 100 | 100 | 100 | – |
| Cc1cc(C)c(C2C(=O)CC(CCNC(=O)c3nc(Cl)sc3C)C2=O)c(C)c1 (stereo not drawn) [Compound A143] | 90 | 90 | 100 | 100 | – |
| Cc1cc(Cl)c(C2C(=O)CC(CCNC(=O)c3ncccc3F)C2=O)c(Cl)c1 (stereo not drawn) [Compound A144] | 90 | 30 | 100 | 90 | – |
| Cc1cc(C)c(C2C(=O)CC(CCNC(=O)c3cc(Cl)cc(Cl)n3)C2=O)c(C)c1 (stereo not drawn) [Compound A146] | 40 | 60 | 100 | 70 | – |
| Cc1cc(C)c(C2C(=O)CC(CCNC(=O)c3cccc(C#N)n3)C2=O)c(C)c1 (stereo not drawn) [Compound A147] | 60 | 60 | 60 | 70 | – |
| Cc1cc(C)c(C2C(=O)CC(CCNC(=O)c3cc(C#N)ccn3)C2=O)c(C)c1 (stereo not drawn) [Compound A148] | 90 | 70 | 90 | 90 | – |
| Cc1cc(C)c(C2C(=O)CC(CCNC(=O)c3nc(F)ccc3Br)C2=O)c(C)c1 (stereo not drawn) [Compound A149] | 100 | 100 | 100 | 100 | – |

| SMILES | pest or weed control at 250 g/ha (Avena fatua (AVEFA)) [%] | pest or weed control at 250 g/ha [1] [%] | pest or weed control at 250 g/ha [2] [%] | pest or weed control at 250 g/ha (Lolium perenne (LOLPE)) [%] | Post-emergence Herbicidal Activity (% Phytotoxicity) ALOMY [1] [%] |
| --- | --- | --- | --- | --- | --- |
| Cc1cc(C)c(C2C(=O)CC(CCNC(=O)c3ncc(C#N)cc3Cl)C2=O)c(C)c1 (stereo not drawn) [Compound A150] | 90 | 70 | 80 | 80 | – |
| Cc1cc(C)c(C2C(=O)CC(CCNC(=O)c3cccnc3F)C2=O)c(C)c1 (stereo not drawn) [Compound A151] | 90 | 90 | 90 | 90 | – |
| Cc1cc(C)c(C2C(=O)CC(CCNC(=O)c3cccnc3C(F)(F)F)C2=O)c(C)c1 (stereo not drawn) [Compound A152] | 70 | 80 | 80 | 70 | – |
| Cc1cc(-n2cc(Cl)cn2)cc(C)c1C1C(=O)CC(CCNC(=O)c2cc(Br)ccn2)C1=O (stereo not drawn) [Compound A154] | 100 | 100 | 100 | 100 | – |
| Cc1cc(-n2cc(Cl)cn2)cc(C)c1C1C(=O)CC(CCNC(=O)c2ccc(Cl)cn2)C1=O (stereo not drawn) [Compound A155] | 100 | 100 | 100 | 100 | – |
| Cc1ccnc(C(=O)NCCC2CC(=O)C(c3c(C)cc(-n4cc(Cl)cn4)cc3C)C2=O)c1 (stereo not drawn) [Compound A156] | 90 | 50 | 100 | 90 | – |
| Cc1cc(C)c(C2C(=O)CC(CCNC(=O)c3cncc(Cl)c3)C2=O)c(C)c1 (stereo not drawn) [Compound A157] | 70 | 70 | 90 | 70 | – |
| Cc1cc(C)c(C2C(=O)CC(CCNC(=O)c3ccc(F)nc3)C2=O)c(C)c1 (stereo not drawn) [Compound A158] | 90 | 80 | 70 | 80 | – |
| Cc1cc(C)c(C2C(=O)CC(CCNC(=O)c3nn(C)c(Cl)c3C)C2=O)c(C)c1 (stereo not drawn) [Compound A160] | 100 | 90 | 100 | 90 | – |
| Cc1cc(C)c(C2C(=O)CC(CCNC(=O)c3c(Cl)c(C(F)(F)F)nn3C)C2=O)c(C)c1 (stereo not drawn) [Compound A161] | 100 | 90 | 100 | 100 | – |
| Cc1cc(C)c(C2C(=O)CC(CCNC(=O)c3cc(C4CC4)on3)C2=O)c(C)c1 (stereo not drawn) [Compound A162] | 90 | 70 | 90 | 100 | – |
| Cc1cc(C)c(C2C(=O)CC(CCNC(=O)c3nnsc3C)C2=O)c(C)c1 (stereo not drawn) [Compound A164] | 100 | 90 | 100 | 90 | – |
| O=C(NCCC1CC(=O)C(c2c(Cl)cc(-c3ccc(F)cc3)cc2Cl)C1=O)c1cccc(F)n1 (stereo not drawn) [Compound A165] | 100 | 90 | 100 | 100 | – |
| Cc1cc(C)c(C2C(=O)CC(CCNC(=O)c3ccc(F)nc3F)C2=O)c(C)c1 (stereo not drawn) [Compound A166] | 90 | 80 | 60 | 90 | – |
| Cc1cc(C)c(C2C(=O)CC(CCNC(=O)c3ccc(C)nc3Cl)C2=O)c(C)c1 (stereo not drawn) [Compound A167] | 30 | 60 | 90 | 70 | – |
| Cc1cc(C)c(C2C(=O)CC(CCNC(=O)c3cccnc3Br)C2=O)c(C)c1 (stereo not drawn) [Compound A168] | 80 | 60 | 80 | 70 | – |
| Cc1cc(-n2cc(Cl)nn2)cc(C)c1C1C(=O)CC(CCNC(=O)c2ccccn2)C1=O (stereo not drawn) [Compound A170, N-[2-[3-[4-(4-chlorotriazol-1-yl)-2,6-dimethyl-phenyl]-2,4-dioxo-cyclopentyl]ethyl]pyridine-2-carboxamide] | 100 | 90 | 100 | 90 | 90 |
